Test results taken from patent US10238710B2, “Peptide having anti-inflammatory, osteogenic and hair growth promoting activities, and use of same” (CAREGEN CO., LTD., priority 2014, dated 2019).

How the values were obtained:
RAW264.7 cells = assay: Proliferation assay of macrophages treated with TNF-α (SRB); assay type: cell-based, mouse; conditions: 100 ng/ml TNF-α and 50 μg/ml peptide, 72 hours
Description: The mouse macrophage cell line, raw 264.7 cells were seeded on a 48-well plate at a density of 1×10^4 cells/well. After stabilization for 24 hours, the cells were incubated in a serum-free medium for 6 hours, and then simultaneously treated with 100 ng/ml TNF-α and 50 μg/ml peptide, followed by incubation for 72 hours. After the completion of the incubation, the supernatant was removed and the cells were immobilized using ethanol, and after the cell immobilization was ended, the cells were washed three times with phosphate buffer saline (PBS). After the wash solution was removed, the cells were treated with colorimetric SRB solution, and sufficiently washed with 1% acetic acid. Then, the cells were observed using a microscope to observe the conditions of living cells. The absorbance for the solution decolorized with 20 mM tris was read at UV light of 560 nm, thereby measuring the survival conditions of cells.

Phospho-PI3K = assay: Western blotting using osteoblasts (PI3K phosphorylation); assay type: cell-based; conditions: mouse osteoblast line, 50 μg/ml, 15 minutes
Description: The cells were treated with the peptides at 50 μg/ml for 15 minutes (positive control: HGF 50 ng/ml). The cells were treated with the cell lysis buffer to obtain a lysate, followed by protein quantification, and then western blotting was performed with respect to Phospho-PI3K (P-PI3K) using anti-pPI3K antibody (Santa Cruz Biotechnology, USA).

Wnt3a = assay: Western blotting of hair growth protein Wnt3a; assay type: cell-based, human; conditions: HFDPC, 0.1-50 μg/ml, 24 hours
Description: (§1) In order to observe the changes in the expression of IGF1, KGF, and Wnt3a, which are proteins involved in the development of hair roots in the human hair follicle dermal papilla cells, the cells were treated with the peptides of the present invention for 24 hours, and then subjected to western blotting using specific antibodies, thereby observing the changes in hair growth-related proteins.
(§2) The cells were stabilized by the incubation overnight, and then treated with the peptides at different concentrations (0.1-50 μg/ml) for 24 hours. The cells were treated with the cell lysis buffer to obtain a lysate, followed by protein quantification, and then western blotting was performed with respect to IGF-1, KGF, and Wnt3a.
(§3) The test was carried out using anti-IGF-1 antibody (Santa Cruz Biotechnology, USA), anti-KGF antibody (Santa Cruz Biotechnology, USA), and anti-Wnt3a antibody (Santa Cruz Biotechnology, USA).

IGF-1 = assay: Western blotting of hair growth protein IGF-1; assay type: cell-based, human; conditions: HFDPC, 0.1-50 μg/ml, 24 hours
Description: as §1, §2, §3

DKK-1 = assay: Western blotting of DKK-1 with hair loss causing hormone DHT; assay type: cell-based, human; conditions: HFDPC, 5 μg/ml DHT together with peptide 1 and 10 μg/ml, 48 hours
Description: The cells were treated with DHT and the peptides for 48 hours, and then subjected to western blotting with respect to DKK-1 using specific antibodies, thereby observing the expression of DKK-1.
The human hair follicle dermal papilla cells were seeded on a 6-well plate at a density of 1×10^5 cells/well. The cells were stabilized by incubation overnight, and then treated with 5 μg/ml DHT (Sigma Aldrich) together with the peptides at different concentrations (1 μg/ml and 10 μg/ml) for 48 hours. The cells were treated with the cell lysis buffer to obtain a lysate, followed by protein quantification, and then western blotting was performed with respect to DKK-1 using anti-DKK-1 antibody (Santa Cruz Biotechnology, USA).

[1] = system: human hair follicle dermal papilla cells (HFDPC); assay: Cell proliferation assay (SRB), HFDPC; assay type: cell-based; conditions: 1, 10 and 50 μg/ml, 72 hours
Description: In order to observe the cell proliferation effect on human hair follicle dermal papilla cells, human hair follicle germinal matrix cells, and human umbilical vein endothelial cells, which are main hair cells, each type of cells were seeded on a 96-well plate at a density of 3×10^3 cells/well, followed by incubation under conditions of 37° C. and 5% CO2 for 24 hours. After the medium was exchanged with the same culture medium completely excluding serum, the cells were treated with the peptides at different concentrations (1 μg/ml, 10 μg/ml, and 50 μg/ml), followed by incubation under the same conditions for 72 hours. After the incubation supernatant was removed, the cells were immobilized using ethanol, and washed three times with phosphate buffer saline (PBS). The wash solution was removed, and the cells were stained through the treatment with colorimetric SRB solution. After the cells were sufficiently washed with 1% acetic acid, the cells were observed using a microscope to observe the state of living cells. The absorbance was read at UV light of 560 nm, thereby measuring the survival conditions of cells

Ha3-II and keratin 14 = assay: RT-PCR of keratinocyte differentiation markers in HaCaT cells; assay type: cell-based, human; conditions: HaCaT, 0.1, 1 and 10 μg/ml, 24 hours
Description: The cells were treated with the peptides at different concentrations (0.1 μg/ml, 1 μg/ml, and 10 μg/ml), and then incubated in an incubator at 37° C. for 24 hours. […] RT-PCR was carried out using primers of respective markers (Ha3-II and keratin 14) and PCR pre-mix (Intron) to measure the changes in the expression of the markers.
Target-specific primer sequences used in PCR for keratinocyte differentiation markers were as follows: Ha3-II forward primer sequence, 5′-[…]-3′ and Ha3-II reverse primer, 5′-[…]-3′ (annealing temperature, 60° C.); Keratin14 forward primer sequence, 5′-[…]-3′ and Keratin14 reverse primer, 5′-[…]-3′ (annealing temperature, 60° C.)

PI3K = assay: Western blotting of cell signaling material, PI3K; assay type: cell-based, human; conditions: HFDPC, 1 and 10 μg/ml, 30 minutes and 60 minutes
Description: (§4) In order to observe the changes in the phosphorylation of ERK and the expression of PI3K, which are main signaling materials involved in cell proliferation in the human hair follicle dermal papilla cells, the cells were treated with the peptides of the present invention for 30 minutes and 60 minutes, and then subjected to western blotting using specific antibodies, thereby observing the pERK and PI3K changes. The test was carried out using anti-pERK antibody (Santa Cruz Biotechnology, USA) and anti-pPI3K antibody (Santa Cruz Biotechnology, USA).
(§5) The cells were treated with the cell lysis buffer to obtain a lysate, followed by protein quantification, and then western blotting was performed with respect to Phospho-ERK (pERK), PI3K, and β-catenin.

osteoprotegerin (OPG) = assay: RT-PCR of osteogenic differentiation marker OPG; assay type: cell-based, mouse; conditions: MC3T3-E1, three days
NF-κB = assay: Western blotting in HaCaT cells, nuclear translocation of NF-κB activated by TNF-α; assay type: cell-based, human; conditions: peptide at different concentrations
[2] = system: alkaline phosphatase (ALP); conditions: MC3T3-E1, three days, RT-PCR
Description: MC3T3-E1 (mouse osteoblast line) cells were seeded on a 6-well plate at a cell density of 1×10^5 cells/well. The cells incubated overnight were treated with the peptides at different concentrations (10 and 50 μg/ml), followed by incubation in an incubator at 37° C. for three days (positive control: 100 ng/ml BMP2 (Cell signaling)). After the incubation-completed cells were collected, the cells were treated with RNA extraction solution (Easy Blue, Intron) to prepare RNA, and then cDNA was synthesized using RT pre-mix (Intron). PCR was carried out using primers of respective markers (OPG, ALP, BSP) and PCR pre-mix (Intron).
Target-specific primer sequences used in PCR for osteogenic differentiation markers were as follows: OPG forward primer sequence, 5′-[sequence]-3′ and OPG reverse primer, 5′-[sequence]-3′ (annealing temperature, 60° C.); ALP forward primer sequence, 5′-[sequence]-3′ and ALP reverse primer, 5′-[sequence]-3′ (annealing temperature, 60° C.); BSP forward primer sequence, 5′-[sequence]-3′ and BSP reverse primer, 5′-[sequence]-3′ (annealing temperature, 60° C.)
5 μl of PCR product was loaded on 1% agarose gel, followed by electrophoresis, and then the bands were investigated using Gel-Doc.

Phospho-ERK (pERK) = assay: Western blotting of cell signaling material, ERK phosphorylation; assay type: cell-based, human; conditions: HFDPC, 1 and 10 μg/ml, 30 minutes and 60 minutes
Description: as §4, §5

NH2-Ala-Cys-Arg-Ser-Ala-Ile-Gly-Arg-Pro-Cys-COOH (H-ACRSAIGRPC-OH; cysteine pairing not given here) [SEQ ID NO: 1]
proliferation of RAW264.7 cells increased with TNF-α treatment (RAW264.7 cells): reduced
phosphorylation of PI3K by HGFR signal stimulation (Phospho-PI3K): increased
expression of Wnt3a (Wnt3a): increased
expression of IGF-1 (IGF-1): increased
expression of DKK-1 increased by DHT (DKK-1): reduced
cell proliferation, HFDPC [1]: increased in a concentration-dependent manner
mRNA expression levels of differentiation markers Ha3-II and keratin 14 (Ha3-II and keratin 14): keratinocyte differentiation promoting effect
level of PI3K (PI3K): increased
expression of osteoprotegerin (OPG) (osteoprotegerin (OPG)): increased
nuclear translocation of NF-κB activated by TNF-α treatment (NF-κB): reduced
expression of alkaline phosphatase (ALP) [2]: increased
phosphorylation of ERK (Phospho-ERK (pERK)): increased
